Where only a bound is given, the exact number is not on record here.

T1 sequence (Q9UKV0 1-1066 isoform Q9UKV0-5): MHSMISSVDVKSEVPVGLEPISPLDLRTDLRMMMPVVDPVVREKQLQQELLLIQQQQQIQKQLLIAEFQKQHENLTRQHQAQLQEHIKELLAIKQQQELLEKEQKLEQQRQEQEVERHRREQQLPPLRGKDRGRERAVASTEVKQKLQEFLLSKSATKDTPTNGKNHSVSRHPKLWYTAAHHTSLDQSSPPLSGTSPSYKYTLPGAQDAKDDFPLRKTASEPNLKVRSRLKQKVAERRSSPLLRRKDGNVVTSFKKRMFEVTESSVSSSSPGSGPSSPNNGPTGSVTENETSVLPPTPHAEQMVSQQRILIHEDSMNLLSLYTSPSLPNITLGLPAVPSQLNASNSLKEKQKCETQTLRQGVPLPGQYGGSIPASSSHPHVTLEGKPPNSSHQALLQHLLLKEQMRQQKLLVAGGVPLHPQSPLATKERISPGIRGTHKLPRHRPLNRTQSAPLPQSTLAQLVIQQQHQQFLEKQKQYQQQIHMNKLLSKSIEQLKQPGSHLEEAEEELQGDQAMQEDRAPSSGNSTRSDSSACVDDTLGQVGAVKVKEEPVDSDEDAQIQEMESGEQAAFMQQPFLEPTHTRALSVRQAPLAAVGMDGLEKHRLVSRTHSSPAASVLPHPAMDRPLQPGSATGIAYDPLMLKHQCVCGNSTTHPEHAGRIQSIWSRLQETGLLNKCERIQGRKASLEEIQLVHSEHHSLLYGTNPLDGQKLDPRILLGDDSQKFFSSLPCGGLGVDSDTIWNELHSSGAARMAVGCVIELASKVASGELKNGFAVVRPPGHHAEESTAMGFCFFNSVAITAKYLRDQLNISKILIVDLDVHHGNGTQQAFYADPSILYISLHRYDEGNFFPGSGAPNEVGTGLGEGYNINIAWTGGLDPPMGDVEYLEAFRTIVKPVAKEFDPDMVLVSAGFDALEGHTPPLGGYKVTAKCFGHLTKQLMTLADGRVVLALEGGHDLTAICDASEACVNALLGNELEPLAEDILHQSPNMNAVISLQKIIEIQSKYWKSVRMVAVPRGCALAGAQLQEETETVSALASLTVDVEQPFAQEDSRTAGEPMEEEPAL

This assay concerns the target T1, Recombinant HDAC9 isoform 4 (Homo sapiens, UniProt Q9UKV0).
T1 construct: purchased BPS Bioscience
In words: Histone Deacetylase 9 (HDAC9) inhibition assay, fluorogenic substrate. The format is biochemical. The following applies: mean of a minimum of 2 experiments; 11 point 3x dilution series from 100 uM; 45 minutes incubation at room temperature; read-out: mean pIC50 of HDAC9 inhibition (converted). The source says:
Histone Deacetylase 9 (HDAC9) Inhibition Assay:
Novel histone deacetylase 9 (HDAC9) inhibitors were characterized in an in vitro biochemical functional assay. The assay measures the increased fluorescent signal due to deacetylation, by HDAC9, of a fluorogenic substrate. The commercial available substrate is Class IIa HDAC-specific and contains an acetylated lysine residue and would releases the fluorescent signal upon trypsin cleavage after deacetylation.
Specifically, test compounds diluted to various concentrations in 100% DMSO are first dispensed into 384-well assay plates. Recombinant HDAC9 isoform 4 (purchased from BPS Bioscience) in complete assay buffer (50 mM Tris-HCl, pH 8.0, 137 mM NaCl, 2.7 mM KCl, 1 mM MgCl2, 0.05% BSA & 0.005% Tween 20) were then added to each well (5 uL/well) using Multidrop Combi (Thermo Scientific), followed by 5 uL/well substrate (purchased from BPS Bioscience, 4.5 uM final). After 45 minutes incubation at room temperature, 10 uL 2× developer solution (assay buffer with 40 uM Trypsin and 20 uM Trichostatin A) was added. The plates were then incubated 1 hour at room temperature before reading in fluorescent intensity mode at 450 nm in an Envision (Perkin Elmer) plate reader. Percent Inhibition of HDAC9 activity by compounds in each test wells was calculated by normalizing to fluorescent signal in control wells containing DMSO only.
For dose response experiments, normalized data were fit by ABASE/XC50 using the equation y=a+(b−a)/(1+(10̂×/10̂c)̂d), where a is the minimum % activity, b is the maximum % activity, c is the pIC50, d is the Hill slope.
Regarding `CN(C)CCC(CNC(=O)CCCc1ccc(C(=O)C(F)(F)F)s1)c1coc(-c2ccc(F)cc2)n1` (stereo not shown) [Example 18, N-(4-(Dimethylamino)-2-(2-(4-fluorophenyl)oxazol-4-yl)butyl)-4-(5-(2,2,2-trifluoroacetyl)thiophen-2-yl)butanamide], the IC50 is under 1000 nM. As to `CN1CCC(CNC(=O)CCCc2noc(C(F)(F)F)n2)(c2coc(-c3ccc(F)cc3)n2)CC1` [Example 5, N-((4-(2-(4-Fluorophenyl)oxazol-4-yl)-1-methylpiperidin-4-yl)methyl)-4-(5-(trifluoromethyl)-1,2,4-oxadiazol-3-yl)butanamide], the IC50 is under 1000 nM. Regarding `CC(C)(CNC(=O)CCCc1noc(C(F)(F)F)n1)c1coc(-c2ccc(F)cc2)n1` [Example 3, N-(2-(2-(4-Fluorophenyl)oxazol-4-yl)-2-methylpropyl)-4-(5-(trifluoromethyl)-1,2,4-oxadiazol-3-yl)butanamide], the IC50 is under 1000 nM.

On to `CN(C)CCC(CNC(=O)CCCc1noc(C(F)(F)F)n1)c1coc(-c2ccc(F)cc2)n1` (stereo not shown) [Example 4, N-(4-(Dimethylamino)-2-(2-(4-fluorophenyl)oxazol-4-yl)butyl)-4-(5-(trifluoromethyl)-1,2,4-oxadiazol-3-yl)butanamide], for which the IC50 was under 1000 nM.

Source of the values: patent US20120322827A1, “COMPOUNDS AND METHODS” (priority 2010, published 2012).
